Data published in patent publication US6387406B1, “Copolymer compositions for oral delivery” (Supratek Pharma Inc., priority 1992, dated 2002).
Values after ≈ are worked out from the molar mass of the structure shown. Like-named read-outs stand apart in the source and are kept apart here.

Legend:
[1] = test system: SKVLB cell line (SK-resistant cells); test: XTT cytotoxicity on SK-resistant cells; type: cell-based, human; conditions: for IC50: Homo sapiens
DBA/2 mice [2] = test system: DBA/2 mice
[3] = test system: neuroleptic effect as monitored behaviorally; test: Minimum neuroleptic dose (MND); type: in vivo; conditions: control preparation
Method: The minimum neuroleptic dose (MND) was determined for each preparation. The minimum neuroleptic dose is defined as the minimum dose that caused a neuroleptic effect as monitored behaviorally. See, Kabanov et al., FEBS Lett. 258: 343-345, 1989. The MND for the copolymer-containing preparation was 0.02 mg/kg, while that of the control preparation was 2 mg/kg. The ratio of LD95/MND was 50 for the copolymer preparation and 5 for the control preparation.

DBA/2 mice [4] = conditions: ±S.D.
[5] = test system: SKOV3 line of transformed cells (SK cells); test: Cytotoxicity on SK cells; type: cell-based, human; conditions: free drug
glucose level in plasma = test: Insulin-induced hypoglycemia, s.c. or p.o.; type: in vivo, Balb/c mice
Method: Hypoglycemia induced by high doses of insulin in mice was used as biological response criteria. The drug activity was evaluated by analyzing the glucose level in plasma versus time following drug administration. Isotonic solutions of free insulin (Ins) or insulin formulated with POE-POP block copolymer (“SP1-Ins”) were given to Balb/c mice at the same doses either s.c. or p.o.
Female six-week-old Balb/c mice (six animals per time point) were administered s.c. or p.o. with sterile 100 μl per 20 g of body weight (5 ml/kg) of Insulin or SP1-Insulin solutions, and the same volumes of isotonic solution were given to the control group of animals. Both Insulin and SP1-Insulin injections contained 0.02 mg/ml of insulin with activity of 27.3 μ/mg.
The animals were sacrificed after various time intervals (0.5-6 hr; post-administration), plasma samples were collected, and glucose levels were analyzed by standard glucosoxidase-peroxidase method. The statistical significance was analyzed by the multiple range text of Duncan-Kramer.

BALB/c male mice = conditions: mouse, in vivo, ip
[6] = control preparation, solution in RPMI 1640
[7] = Example 10: 10% of LD95 i.p., stearoylated insulin-targeted micelles vs free drug

COc1cccc2c1C(=O)c1c(O)c3c(c(O)c1C2=O)C[C@@](O)(C(=O)CO)C[C@@H]3O[C@H]1C[C@H](N)[C@H](O)[C@H](C)O1 [Free doxorubicin, doxorubicin]
IC50 [1]: 60 µg/mL (≈ 110 µM)

CCN1CCCC1CNC(=O)c1cc(S(N)(=O)=O)ccc1OC (stereo not shown) [Sulpiride]
LD95 (DBA/2 mice [2]; [6]): 100 mg/kg body weight

CN1CCN(CCCN2c3ccccc3Sc3ccc(C(F)(F)F)cc32)CC1 [Trifluorperazine]
LD95 (DBA/2 mice [2]; [6]): 10 mg/kg body weight | minimum neuroleptic dose (MND) [3]: 2 mg/kg | ratio of LD95/MND [3]: 5

O=C(CCCN1CCC(O)(c2ccc(Cl)cc2)CC1)c1ccc(F)cc1 [haloperidol]
LD95 (DBA/2 mice [2]; i.p., without the Pluronic vehicle): 75 mg/kg | Horizontal mobility (DBA/2 mice [4]; Example 7: 10% of LD95 i.p., antibody-targeted micelles vs free drug): 204.6 ± 24% | Grooming (DBA/2 mice [4]; [7]): 1656.4 ± 6.5% | Horizontal mobility (DBA/2 mice [4]; [7]): 180.1 ± 26%

CN(Cc1cnc2nc(N)nc(N)c2n1)c1ccc(C(=O)N[C@@H](CCC(=O)O)C(=O)O)cc1 [methotrexate]
IC50 ([1]; free drug, read-out: IC50 against SK-resistant cells): 1.34 µg/mL (≈ 2.95 µM)

CO[C@@]12[C@H](COC(N)=O)C3=C(C(=O)C(C)=C(N)C3=O)N1C[C@@H]1N[C@@H]12 [mitomycin C]
IC50 against SK-resistant cells ([1]; free drug): 1.120 µg/mL (≈ 3.35 µM) | IC50 against SK cells [5]: 0.320 µg/mL (≈ 0.957 µM)

Insulin
changes in plasma glucose level (glucose level in plasma; p.o., in words): only minor changes | time to return to the normal glucose level (glucose level in plasma; s.c.): about 6 hours | glucose level in plasma (glucose level in plasma; s.c., 3 hours after administration): about 15 % of the normal level

Pluronic P85
MTD (BALB/c male mice): 200 mg/kg
